Measured values as given in patent US12569457B2, “Coated beta hydroxybutyric acid crystal and methods for producing the same” (NANJING NUTRABUILDING BIO-TECH CO., LTD., priority 2021, dated 2026).

Test: Stability test of coated BHB free acid crystal pellets/granules vs BHB free acid crystal at 25° C./60% RH (moisture and dipolymer content)
Format: physicochemical
Procedure: The coated BHB free acid crystal pellets/granules were subjected to a controlled temperature of 25° C./60% RH. The products were subjected to stability testing at the following time intervals: 0 time, 3 months, 6 months, 9 months, and 12 months.
The preparation method of such coated BHB free acid crystal pellets/granules includes the following steps: • (1) Wet granulation: Mix 3 kg of BHB free acid crystals and 0.05 kg of microcrystalline fiber, add 0.06 kg of water for wet granulation to obtain wet materials. The stirring motor rotating speed of the wet granulator is adjusted to 45 r/min, the speed of the shearing head is 800 r/min and the feeding speed of the binder is 5 r/min; • (2) Extrusion: Extrude the wet material obtained in step (1) by the extruder with the sieve plate aperture of 0.8 mm, to obtain strip materials with the same diameter. The screw speed of the extruder is adjusted to 150 r/min. […] Obtain strip materials with the same diameter; • (3) Spheronization: Sphere the strip materials obtained in step (2) at the high speed through the spheronization device to get pellets/granules of the same size and good roundness. The rotation speed of the spheronization device is adjusted to 1000 r/min and the time of spheronization is 6 min; • (4) Drying: Dry the pellets/granules prepared in step (3) to get BHB free acid crystal pellets/granules. The drying temperature is adjusted to 35° C. and the drying time is 25 min; • (5) Coating: Coating the BHB free acid crystal pellets/granules prepared in step (4) by Wurster coater with coating material, which is dissolved in water or ethanol at a solid content of 20% for use. The air inlet speed of the Wurster coater is 25 Hz and the coating temperature is 38° C., and the feeding speed of the coating liquid is 2 r/min. Drying for 15 min after coating is completed to obtain the coated BHB free acid crystal.The coated BHB free acid crystal pellets/granules were subjected to a controlled temperature of 25° C./60% RH. The products were subjected to stability testing at the following time intervals: 0 time, 3 months, 6 months, 9 months, and 12 months.

## CC(O)CC(=O)O (stereo not drawn) [BHB Free Acid Crystal, beta hydroxybutyric acid]
0 time
  Dipolymer Content: 0.38%
  Moisture Content: 0.50%
3 months
  Dipolymer Content: 1.42%
  Moisture Content: 2.14%
6 months
  Dipolymer Content: 4.29%
  Moisture Content: 10.63%
9 months
  Dipolymer Content: 10.65%
  Moisture Content: 18.16%
12 months
  Dipolymer Content: 29.07%
  Moisture Content: 29.97%
